From publication PMC6478789, “A chemical toolbox for the study of bromodomains and epigenetic signaling” (Nature Communications, 2019)
Like-named read-outs stand apart in the source and are kept apart here. Blank lines part the entries; values can stand above or below the compound they belong to.

Legend:
AAK1 = target: T1, AAK1 (Homo sapiens, UniProt Q2M2I8); test: Temperature shift assay (protein kinases); format: binding; conditions: 10 μM probe; average of three measurements
T1 construct: Recombinant protein domains (bromodomain or kinases) at a concentration of 2 μM
T1 sequence (Q2M2I8 46-315 limits assumed, species assumed): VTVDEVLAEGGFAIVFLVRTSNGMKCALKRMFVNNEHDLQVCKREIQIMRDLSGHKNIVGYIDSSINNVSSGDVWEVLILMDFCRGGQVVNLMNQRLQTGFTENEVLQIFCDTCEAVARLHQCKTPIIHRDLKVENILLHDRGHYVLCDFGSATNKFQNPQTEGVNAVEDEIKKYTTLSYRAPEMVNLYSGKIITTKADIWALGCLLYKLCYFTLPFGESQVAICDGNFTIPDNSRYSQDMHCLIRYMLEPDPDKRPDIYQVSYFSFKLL
Experimental: (§1) Temperature shift assays have been described by Fedorov et al.[46]. Recombinant protein domains (bromodomain or kinases) at a concentration of 2 μM in 10 mM HEPES, pH 7.5, and 500 mM NaCl were mixed with 10 μM of chemical probes. Temperature-dependent protein unfolding profiles were measured using a Real-Time PCR Mx3005p machine (Stratagene).

STK10 = target: T2, STK10 (Homo sapiens, UniProt O94804); test: Temperature shift assay (protein kinases); format: binding; conditions: 10 μM probe; average of three measurements
T2 construct: Recombinant protein domains (bromodomain or kinases) at a concentration of 2 μM
T2 sequence (O94804 36-294 limits assumed, species assumed): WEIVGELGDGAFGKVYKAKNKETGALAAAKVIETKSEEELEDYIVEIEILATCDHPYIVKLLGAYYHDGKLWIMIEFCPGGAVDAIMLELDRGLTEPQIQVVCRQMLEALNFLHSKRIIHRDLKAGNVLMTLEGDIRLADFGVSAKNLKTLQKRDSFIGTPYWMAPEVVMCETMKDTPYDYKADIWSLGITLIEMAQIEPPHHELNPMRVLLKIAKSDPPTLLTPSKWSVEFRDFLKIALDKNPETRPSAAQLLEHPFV
Experimental: as §1

BMX = target: T3, BMX (Homo sapiens, UniProt P51813); test: Temperature shift assay (protein kinases); format: binding; conditions: 10 μM probe; average of three measurements
T3 construct: Recombinant protein domains (bromodomain or kinases) at a concentration of 2 μM
T3 sequence (P51813 417-675 limits assumed, species assumed): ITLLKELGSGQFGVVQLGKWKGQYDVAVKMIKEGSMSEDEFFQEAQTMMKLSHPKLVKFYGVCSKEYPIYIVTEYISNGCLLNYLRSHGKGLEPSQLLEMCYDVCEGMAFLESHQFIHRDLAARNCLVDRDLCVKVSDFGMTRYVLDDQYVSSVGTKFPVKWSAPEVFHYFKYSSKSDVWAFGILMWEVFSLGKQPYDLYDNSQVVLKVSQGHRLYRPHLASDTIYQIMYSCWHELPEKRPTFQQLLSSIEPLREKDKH
Experimental: as §1

CAMKK2 = target: T4, CAMKK2 (Homo sapiens, UniProt Q96RR4); test: Temperature shift assay (protein kinases); format: binding; conditions: 10 μM probe; average of three measurements
T4 construct: Recombinant protein domains (bromodomain or kinases) at a concentration of 2 μM
T4 sequence (Q96RR4 165-446 limits assumed, species assumed): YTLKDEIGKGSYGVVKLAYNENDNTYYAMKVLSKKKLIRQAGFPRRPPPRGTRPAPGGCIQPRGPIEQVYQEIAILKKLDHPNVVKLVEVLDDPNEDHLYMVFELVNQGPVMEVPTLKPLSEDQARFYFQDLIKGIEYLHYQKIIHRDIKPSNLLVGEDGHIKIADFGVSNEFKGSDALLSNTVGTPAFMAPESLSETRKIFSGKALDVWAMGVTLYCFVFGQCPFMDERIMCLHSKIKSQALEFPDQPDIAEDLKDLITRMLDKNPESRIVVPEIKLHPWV
Experimental: as §1

CSNK1D = target: T5, CSNK1D (Homo sapiens, UniProt P48730); test: Temperature shift assay (protein kinases); format: binding; conditions: 10 μM probe; average of three measurements
T5 construct: Recombinant protein domains (bromodomain or kinases) at a concentration of 2 μM
T5 sequence (P48730 9-277 limits assumed): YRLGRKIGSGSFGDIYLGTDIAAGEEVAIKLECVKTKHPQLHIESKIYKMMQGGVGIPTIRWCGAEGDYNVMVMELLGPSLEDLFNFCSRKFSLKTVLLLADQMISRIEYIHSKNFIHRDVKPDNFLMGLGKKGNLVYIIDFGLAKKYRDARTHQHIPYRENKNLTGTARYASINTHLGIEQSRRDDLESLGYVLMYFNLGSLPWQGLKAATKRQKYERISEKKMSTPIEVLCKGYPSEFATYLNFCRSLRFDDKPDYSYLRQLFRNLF
Experimental: as §1

TTK = target: T6, TTK (Homo sapiens, UniProt P33981); test: Temperature shift assay (protein kinases); format: binding; conditions: 10 μM probe; average of three measurements
T6 construct: Recombinant protein domains (bromodomain or kinases) at a concentration of 2 μM
T6 sequence (P33981 525-791 limits assumed): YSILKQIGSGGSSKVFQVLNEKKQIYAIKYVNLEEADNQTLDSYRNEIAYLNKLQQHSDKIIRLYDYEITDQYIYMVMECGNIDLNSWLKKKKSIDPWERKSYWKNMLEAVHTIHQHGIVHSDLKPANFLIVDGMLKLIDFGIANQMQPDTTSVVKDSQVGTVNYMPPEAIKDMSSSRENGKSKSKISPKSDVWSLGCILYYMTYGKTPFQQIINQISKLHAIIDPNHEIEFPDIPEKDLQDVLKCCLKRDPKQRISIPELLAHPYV
Experimental: as §1

ABL1 = target: T7, ABL1 (Homo sapiens, UniProt P00519); test: Temperature shift assay (protein kinases); format: binding; conditions: 10 μM probe; average of three measurements
T7 construct: Recombinant protein domains (bromodomain or kinases) at a concentration of 2 μM
T7 sequence (P00519 242-493 limits assumed): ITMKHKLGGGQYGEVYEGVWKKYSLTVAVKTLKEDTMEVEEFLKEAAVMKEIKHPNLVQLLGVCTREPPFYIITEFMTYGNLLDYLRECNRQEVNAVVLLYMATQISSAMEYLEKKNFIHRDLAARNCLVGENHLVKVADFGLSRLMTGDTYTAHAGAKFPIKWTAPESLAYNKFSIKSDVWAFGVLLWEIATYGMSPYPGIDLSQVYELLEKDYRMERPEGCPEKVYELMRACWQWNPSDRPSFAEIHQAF
Experimental: as §1

CK2A1 = target: T8, CK2A1 (Homo sapiens, UniProt P68400); test: Temperature shift assay (protein kinases); format: binding; conditions: 10 μM probe; average of three measurements
T8 construct: Recombinant protein domains (bromodomain or kinases) at a concentration of 2 μM
T8 sequence (P68400 39-324 limits assumed): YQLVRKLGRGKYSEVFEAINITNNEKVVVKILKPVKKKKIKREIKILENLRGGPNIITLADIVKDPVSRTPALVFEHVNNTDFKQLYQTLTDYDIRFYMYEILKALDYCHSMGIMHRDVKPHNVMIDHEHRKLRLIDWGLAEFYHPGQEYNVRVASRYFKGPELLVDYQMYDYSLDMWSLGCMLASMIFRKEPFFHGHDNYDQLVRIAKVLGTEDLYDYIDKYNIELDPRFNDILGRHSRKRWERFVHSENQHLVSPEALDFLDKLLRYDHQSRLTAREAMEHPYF
Experimental: as §1

MERTK = target: T9, MERTK (Homo sapiens, UniProt Q12866); test: Temperature shift assay (protein kinases); format: binding; conditions: 10 μM probe; average of three measurements
T9 construct: Recombinant protein domains (bromodomain or kinases) at a concentration of 2 μM
T9 sequence (Q12866 587-858 limits assumed): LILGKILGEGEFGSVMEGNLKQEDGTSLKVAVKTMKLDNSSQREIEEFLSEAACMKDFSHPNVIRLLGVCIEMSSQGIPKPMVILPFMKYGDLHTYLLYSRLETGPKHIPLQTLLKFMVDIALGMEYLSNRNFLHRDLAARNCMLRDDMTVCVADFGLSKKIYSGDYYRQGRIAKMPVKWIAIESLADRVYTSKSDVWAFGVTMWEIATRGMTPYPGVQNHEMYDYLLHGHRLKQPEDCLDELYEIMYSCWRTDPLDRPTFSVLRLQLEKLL
Experimental: as §1

GPRK5 = target: T10, GPRK5 (Homo sapiens, UniProt P34947); test: Temperature shift assay (protein kinases); format: binding; conditions: 10 μM probe; average of three measurements
T10 construct: Recombinant protein domains (bromodomain or kinases) at a concentration of 2 μM
T10 sequence (P34947 186-448 limits assumed, species assumed): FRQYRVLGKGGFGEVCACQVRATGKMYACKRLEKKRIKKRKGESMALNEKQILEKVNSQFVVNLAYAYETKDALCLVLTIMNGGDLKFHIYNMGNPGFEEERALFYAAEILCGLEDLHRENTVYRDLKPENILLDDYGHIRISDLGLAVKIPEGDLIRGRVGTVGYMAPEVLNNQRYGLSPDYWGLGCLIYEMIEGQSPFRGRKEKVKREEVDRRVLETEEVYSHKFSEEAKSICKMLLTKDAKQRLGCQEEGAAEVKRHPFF
Experimental: as §1

PIM1 = target: T11, PIM1 (Homo sapiens, UniProt P11309); test: Temperature shift assay (protein kinases); format: binding; conditions: 10 μM probe; average of three measurements
T11 construct: Recombinant protein domains (bromodomain or kinases) at a concentration of 2 μM
T11 sequence (P11309 38-290 limits assumed, species assumed): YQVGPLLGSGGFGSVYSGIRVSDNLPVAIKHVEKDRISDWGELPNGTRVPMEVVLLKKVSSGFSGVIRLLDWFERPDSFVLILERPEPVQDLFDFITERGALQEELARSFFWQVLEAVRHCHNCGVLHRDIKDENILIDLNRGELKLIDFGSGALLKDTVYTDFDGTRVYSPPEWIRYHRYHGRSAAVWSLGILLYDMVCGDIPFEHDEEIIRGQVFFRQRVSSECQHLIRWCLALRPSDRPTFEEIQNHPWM
Experimental: as §1

CAMK1G = target: T12, CAMK1G (Homo sapiens, UniProt Q96NX5); test: Temperature shift assay (protein kinases); format: binding; conditions: 10 μM probe; average of three measurements
T12 construct: Recombinant protein domains (bromodomain or kinases) at a concentration of 2 μM
T12 sequence (Q96NX5 23-277 limits assumed, species assumed): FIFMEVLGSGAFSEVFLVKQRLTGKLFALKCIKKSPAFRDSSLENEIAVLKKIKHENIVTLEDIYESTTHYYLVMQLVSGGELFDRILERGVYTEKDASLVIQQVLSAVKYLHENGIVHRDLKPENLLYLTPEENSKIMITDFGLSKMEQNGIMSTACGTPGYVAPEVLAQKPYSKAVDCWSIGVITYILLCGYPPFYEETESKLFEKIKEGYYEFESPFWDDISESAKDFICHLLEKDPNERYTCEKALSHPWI
Experimental: as §1

EPHA2 = target: T13, EPHA2 (Homo sapiens, UniProt P29317); test: Temperature shift assay (protein kinases); format: binding; conditions: 10 μM probe; average of three measurements
T13 construct: Recombinant protein domains (bromodomain or kinases) at a concentration of 2 μM
T13 sequence (P29317 613-875 limits assumed): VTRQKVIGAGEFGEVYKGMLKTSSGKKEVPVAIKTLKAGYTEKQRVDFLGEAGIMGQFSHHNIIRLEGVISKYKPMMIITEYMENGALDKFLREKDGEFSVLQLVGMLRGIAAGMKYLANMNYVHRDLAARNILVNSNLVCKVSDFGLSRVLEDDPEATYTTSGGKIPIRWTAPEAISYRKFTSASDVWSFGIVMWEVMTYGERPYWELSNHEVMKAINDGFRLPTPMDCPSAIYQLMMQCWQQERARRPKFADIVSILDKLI
Experimental: as §1

TRIM24(PHD,BRD) = target: T14, TRIM24(PHD,BRD) (Homo sapiens, UniProt O15164); test: BROMOscan ligand-binding assay
T14 sequence (O15164 824-1006 limits assumed): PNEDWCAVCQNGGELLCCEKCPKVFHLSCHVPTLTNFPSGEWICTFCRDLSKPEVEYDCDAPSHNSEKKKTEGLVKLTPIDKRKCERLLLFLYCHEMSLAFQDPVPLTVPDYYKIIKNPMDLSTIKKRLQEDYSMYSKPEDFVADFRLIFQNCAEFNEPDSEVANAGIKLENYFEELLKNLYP
Source text: (§2) BROMOscan is a binding assay based on the well-known KINOMEscan technology. This assay measures the binding of a DNA-tagged bromodomain to an immobilized BRD ligand. If an inhibitor is present, it will compete with the bromodomain binding to the immobilized ligand, resulting in reduction of a quantitative PCR (qPCR) signal in a dose-dependent manner.

BRD4(1) = BRD4(1) (Homo sapiens, UniProt O60885); test: BROMOscan ligand-binding assay
Source text: as §2

SMARCA2(iso.A) = SMARCA2(iso.A) (Homo sapiens, UniProt P51531); test: BROMOscan ligand-binding assay
Sequence of SMARCA2(iso.A) (P51531 1378-1506 limits assumed): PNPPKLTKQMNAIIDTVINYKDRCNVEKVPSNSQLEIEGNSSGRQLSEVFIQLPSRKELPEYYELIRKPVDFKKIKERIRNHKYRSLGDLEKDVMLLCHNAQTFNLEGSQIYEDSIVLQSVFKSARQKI
Source text: as §2

[1] = KD (BROMOscan), sheet prints no unit (nM)

Structure (SMILES): Cc1noc(C)c1-c1ccc2c(c1)nc(CCc1ccccc1)n2CCN1CCOCC1 [CBP30-298]
Kd (TRIM24(PHD,BRD); BROMOscan Gene Symbol TRIM24(PHD,Bromo.)): 17000 nM | Kd (BRD4(1); BROMOscan Gene Symbol BRD4(1)): 0.52 µM

Structure (SMILES): CCC(=O)N1CCOc2c(cc(-c3ccc(OC)c(OC)c3)cc2OCC2CCCN(C)C2)C1 (stereo not shown) [I-CBP112]
Temperature shift (AAK1): -0.7 Kelvin | Temperature shift (STK10): -0.4 Kelvin | Temperature shift (BMX): -0.1 Kelvin | Temperature shift (CAMKK2): -0.4 Kelvin | Temperature shift (CSNK1D): 0.5 Kelvin | Temperature shift (TTK): 0.0 Kelvin | Temperature shift (ABL1): 0.0 Kelvin | Temperature shift (CK2A1): -1.9 Kelvin | Temperature shift (MERTK): -0.2 Kelvin | Temperature shift (GPRK5): -0.4 Kelvin | Temperature shift (PIM1): -0.1 Kelvin | Temperature shift (CAMK1G): -0.2 Kelvin | Temperature shift (EPHA2): 1.1 Kelvin | Kd (TRIM24(PHD,BRD); KD, TRIM24(PHD,Bromo.)): 14000 nM | Kd (BRD4(1)): 2.9 µM | Kd (SMARCA2(iso.A); [1]): > 30000 nM | Kd (SMARCA2(iso.A); KD, SMARCA2(iso.A)): > 100000 nM

Structure (SMILES): Cc1nnc2c3ccccc3c(N[C@@H](C)[C@H](c3ccccc3)N(C)C)nn12 [L-Moses]
Temperature shift (AAK1): -1.6 Kelvin | Temperature shift (STK10): -0.4 Kelvin | Temperature shift (BMX): -0.1 Kelvin | Temperature shift (CAMKK2): -0.1 Kelvin | Temperature shift (CSNK1D): 0.6 Kelvin | Temperature shift (TTK): -0.5 Kelvin | Temperature shift (ABL1): 0.0 Kelvin | Temperature shift (CK2A1): -0.1 Kelvin | Temperature shift (MERTK): 0.0 Kelvin | Temperature shift (GPRK5): -0.3 Kelvin | Temperature shift (PIM1): 2.3 Kelvin | Temperature shift (CAMK1G): -0.3 Kelvin | Temperature shift (EPHA2): 1.1 Kelvin

Structure (SMILES): COc1cc(C#N)ccc1S(=O)(=O)Nc1ccc2c(c1)cc(C)c(=O)n2C [NI 57]
Kd (TRIM24(PHD,BRD); TRIM24(PHD,Bromo.)): 5600 nM | Kd (BRD4(1); BRD4(1)): 3.3 µM

Structure (SMILES): CCCS(=O)(=O)c1nc(NC2CC2)cc(-c2ccc3c(ccn3C3CC(C)(C)NC(C)(C)C3)c2)n1 [NVS-CECR2-1]
Kd (TRIM24(PHD,BRD)): > 30000 nM | Kd (BRD4(1)): 21 µM

Structure (SMILES): O=C(C=CN1[C@H]2CC[C@@H]1c1ncnc(NC3CC3)c1C2)c1ccccc1O [PFI-3 D1]
Kd (TRIM24(PHD,BRD); BROMOscan, TRIM24(PHD,Bromo.)): > 30000 nM | Kd (BRD4(1); BROMOscan, BRD4(1)): 27 µM

Structure (SMILES): COc1ccc(CCc2nc3cc(-c4c(C)noc4C)ccc3n2C[C@H](C)N2CCOCC2)cc1Cl [SGC-CBP30]
Kd (TRIM24(PHD,BRD); KD, BROMOscan, TRIM24(PHD,Bromo.)): 6500 nM | Kd (BRD4(1)): 1.1 µM | Kd (SMARCA2(iso.A); [1]): > 30000 nM | Kd (SMARCA2(iso.A); KD, BROMOscan, SMARCA2(iso.A)): > 100000 nM

Structure (SMILES): O=C(O)c1ccccc1O [Salicylic Acid]
Kd (TRIM24(PHD,BRD); KD, TRIM24(PHD,Bromo.)): > 1.4e+07 nM | Kd (BRD4(1)): > 14000 µM | Kd (SMARCA2(iso.A); KD, SMARCA2(iso.A)): 950000 nM

The next lines start with the values.

Temperature shift (AAK1): -0.4 Kelvin | Temperature shift (STK10): -0.2 Kelvin | Temperature shift (BMX): 0.3 Kelvin | Temperature shift (CAMKK2): -0.4 Kelvin | Temperature shift (CSNK1D): 1.2 Kelvin | Temperature shift (TTK): -0.1 Kelvin | Temperature shift (ABL1): 0.0 Kelvin | Temperature shift (CK2A1): -1.4 Kelvin | Temperature shift (MERTK): -0.2 Kelvin | Temperature shift (GPRK5): -0.3 Kelvin | Temperature shift (PIM1): -0.2 Kelvin | Temperature shift (CAMK1G): -0.6 Kelvin | Temperature shift (EPHA2): 2.0 Kelvin
Structure (SMILES): Cc1cc2c(cc1N1C(=O)c3cccc4c(CCCO)ccc(c34)C1=O)n(C)c(=O)n2C [BAY-299]

Kd (TRIM24(PHD,BRD); KD, BROMOscan Gene Symbol TRIM24(PHD,Bromo.)): 33000 nM | Kd (BRD4(1)): 74 µM | Kd (SMARCA2(iso.A); [1]): > 30000 nM | Kd (SMARCA2(iso.A); KD, BROMOscan Gene Symbol SMARCA2(iso.A)): > 100000 nM
Structure (SMILES): CCCOc1ccn2c(C(C)=O)cc(-c3ccccc3S(C)(=O)=O)c2c1 [GSK2801]

Kd (TRIM24(PHD,BRD); BROMOscan, TRIM24(PHD,Bromo.)): > 50000 nM | Kd (BRD4(1); BROMOscan, BRD4(1)): 46 µM
Structure (SMILES): Cc1cc(=O)n(C)c2cc(N3C(=O)CC[C@H](NS(=O)(=O)CC(C)C)[C@H]3c3ccc(Cl)cc3)ccc12 [LP-99]

Kd (TRIM24(PHD,BRD); TRIM24(PHD,Bromo.)): 4500 nM
Structure (SMILES): COc1cc2c(cc1NS(=O)(=O)c1ccc(Br)cc1C)n(C)c(=O)n2C [OF-1]

Kd (TRIM24(PHD,BRD); [1]): > 30000 nM | Kd (TRIM24(PHD,BRD); KD, TRIM24(PHD,Bromo.)): > 100000 nM
Structure (SMILES): O=C(C=CN1CC2CC1CN2c1ccccn1)c1ccccc1O (stereo not shown) [PFI-3]
